Data published in PubChem BioAssay (NCI).
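Results reflect a 48-hour exposure of cells in 96-well plates to compound at five concentrations. GI50 marks 50% less growth. TGI: total growth inhibition.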

Assays:
Assay in all cases: NCI anticancer screen, dose series, 48 h
SNB-19 CNS = test system: SNB-19 CNS
OVCAR-4 ovarian = test system: OVCAR-4 ovarian
NCI-H226 lung = test system: NCI-H226 lung
SF-268 CNS = test system: SF-268 CNS
ACHN renal = test system: ACHN renal
KM12 colon = test system: KM12 colon
TK-10 renal = test system: TK-10 renal
CAKI-1 renal = test system: CAKI-1 renal
RPMI-8226 leukemia = test system: RPMI-8226 leukemia
MDA-MB-231 breast = test system: MDA-MB-231 breast
RXF 393 renal = test system: RXF 393 renal
NCI-H23 lung = test system: NCI-H23 lung
U251 CNS = test system: U251 CNS
SN12C renal = test system: SN12C renal
T-47D breast = test system: T-47D breast
SW-620 colon = test system: SW-620 colon
SK-MEL-28 melanoma = test system: SK-MEL-28 melanoma
SF-539 CNS = test system: SF-539 CNS
SK-MEL-5 melanoma = test system: SK-MEL-5 melanoma
UACC-62 melanoma = test system: UACC-62 melanoma
MDA-MB-435 = test system: MDA-MB-435
PC-3 prostate = test system: PC-3 prostate
A498 renal = test system: A498 renal
DU-145 prostate = test system: DU-145 prostate
786-0 renal = test system: 786-0 renal
EKVX NSCLC = test system: EKVX NSCLC
MCF7 breast = test system: MCF7 breast
NCI-H522 lung = test system: NCI-H522 lung
UACC-257 melanoma = test system: UACC-257 melanoma
SF-295 CNS = test system: SF-295 CNS
MALME-3M melanoma = test system: MALME-3M melanoma
HOP-62 NSCLC = test system: HOP-62 NSCLC
HCT-116 colon = test system: HCT-116 colon
UO-31 renal = test system: UO-31 renal
A549 NSCLC = test system: A549 NSCLC
HCC-2998 colon = test system: HCC-2998 colon
HL-60(TB) leukemia = test system: HL-60(TB) leukemia
HOP-92 NSCLC = test system: HOP-92 NSCLC
OVCAR-8 ovarian = test system: OVCAR-8 ovarian
COLO 205 colon = test system: COLO 205 colon
BT-549 breast = test system: BT-549 breast
MOLT-4 leukemia = test system: MOLT-4 leukemia
K-562 leukemia = test system: K-562 leukemia
LOX IMVI melanoma = test system: LOX IMVI melanoma
HT29 colon = test system: HT29 colon
SK-OV-3 ovarian = test system: SK-OV-3 ovarian
OVCAR-5 ovarian = test system: OVCAR-5 ovarian
HCT-15 colon = test system: HCT-15 colon
IGROV1 ovarian = test system: IGROV1 ovarian
SNB-75 CNS = test system: SNB-75 CNS
OVCAR-3 ovarian = test system: OVCAR-3 ovarian
NCI/ADR-RES ovarian = test system: NCI/ADR-RES ovarian
NCI-H460 lung = test system: NCI-H460 lung
M14 melanoma = test system: M14 melanoma
SR leukemia = test system: SR leukemia
HS 578T breast = test system: HS 578T breast
CCRF-CEM leukemia = test system: CCRF-CEM leukemia

With `FC(F)(F)c1cccc(Nc2nccc(-c3cnn4nc(-c5ccccc5)ccc34)n2)c1` the GI50 (SNB-19 CNS) was greater than 17.1 µM, the TGI (SNB-19 CNS) was greater than 25 µM and the GI50 (OVCAR-4 ovarian) was 5.18 µM. For the same compound, the TGI (OVCAR-4 ovarian) was 10.3 µM, the GI50 (NCI-H226 lung) was greater than 25 µM and the TGI (NCI-H226 lung) was greater than 25 µM. The GI50 (SF-268 CNS) was 10.3 µM, the TGI (SF-268 CNS) was greater than 19.2 µM and the GI50 (ACHN renal) was 6.71 µM. The TGI (ACHN renal) was greater than 18 µM, the GI50 (KM12 colon) was 6.46 µM and the TGI (KM12 colon) was greater than 19.6 µM. The GI50 (TK-10 renal) was 9.22 µM, the TGI (TK-10 renal) was greater than 19.2 µM and the GI50 (CAKI-1 renal) was 10.2 µM. The TGI (CAKI-1 renal) was greater than 25 µM, the GI50 (RPMI-8226 leukemia) was 12.9 µM and the TGI (RPMI-8226 leukemia) was greater than 25 µM. The GI50 (MDA-MB-231 breast) was 5.58 µM, the TGI (MDA-MB-231 breast) was greater than 20.9 µM and the GI50 (RXF 393 renal) was 4.63 µM. The TGI (RXF 393 renal) was 10 µM, the GI50 (NCI-H23 lung) was 9.13 µM and the TGI (NCI-H23 lung) was greater than 25 µM. The GI50 (U251 CNS) was 4.58 µM, the TGI (U251 CNS) was 10.1 µM and the GI50 (SN12C renal) was greater than 13.5 µM. The TGI (SN12C renal) was greater than 25 µM, the GI50 (T-47D breast) was 8.33 µM and the TGI (T-47D breast) was greater than 25 µM. It also gave a GI50 (SW-620 colon) of 8.65 µM, a TGI (SW-620 colon) greater than 21.4 µM and a GI50 (SK-MEL-28 melanoma) of 8.11 µM. The TGI (SK-MEL-28 melanoma) was greater than 20.4 µM, the GI50 (SF-539 CNS) was 6.59 µM and the TGI (SF-539 CNS) was greater than 18.7 µM. For the same compound, the GI50 (SK-MEL-5 melanoma) was 14.7 µM, the TGI (SK-MEL-5 melanoma) was greater than 25 µM and the GI50 (UACC-62 melanoma) was 14.4 µM. The TGI (UACC-62 melanoma) was greater than 25 µM, the GI50 (MDA-MB-435) was 10.4 µM and the TGI (MDA-MB-435) was greater than 25 µM. The GI50 (PC-3 prostate) was 8.48 µM, the TGI (PC-3 prostate) was greater than 20.8 µM and the GI50 (A498 renal) was greater than 14 µM. For the same compound, the TGI (A498 renal) was greater than 25 µM, the GI50 (DU-145 prostate) was 7.1 µM and the TGI (DU-145 prostate) was greater than 17.4 µM. For the same compound, the GI50 (786-0 renal) was 5.22 µM, the TGI (786-0 renal) was 11.2 µM and the GI50 (EKVX NSCLC) was greater than 21.2 µM. It also gave a TGI (EKVX NSCLC) greater than 25 µM, a GI50 (MCF7 breast) of 6.82 µM and a TGI (MCF7 breast) greater than 25 µM. The GI50 (NCI-H522 lung) was 6.88 µM, the TGI (NCI-H522 lung) was greater than 18.5 µM and the GI50 (UACC-257 melanoma) was 15.8 µM. The TGI (UACC-257 melanoma) was greater than 25 µM, the GI50 (SF-295 CNS) was greater than 16.6 µM and the TGI (SF-295 CNS) was greater than 25 µM. For the same compound, the GI50 (MALME-3M melanoma) was 7.23 µM, the TGI (MALME-3M melanoma) was 14.1 µM and the GI50 (HOP-62 NSCLC) was 8.1 µM. It also gave a TGI (HOP-62 NSCLC) greater than 20.7 µM, a GI50 (HCT-116 colon) of 5.92 µM and a TGI (HCT-116 colon) of 14.8 µM. It also gave a GI50 (UO-31 renal) of 10.8 µM, a TGI (UO-31 renal) greater than 23.1 µM and a GI50 (A549 NSCLC) of 5.36 µM. The TGI (A549 NSCLC) was greater than 14.3 µM, the GI50 (HCC-2998 colon) was 23.5 µM and the TGI (HCC-2998 colon) was greater than 25 µM. For the same compound, the GI50 (HL-60(TB) leukemia) was greater than 25 µM, the TGI (HL-60(TB) leukemia) was greater than 25 µM and the GI50 (HOP-92 NSCLC) was 3.54 µM. It also gave a TGI (HOP-92 NSCLC) of 10.9 µM, a GI50 (OVCAR-8 ovarian) of 6.54 µM and a TGI (OVCAR-8 ovarian) greater than 18.4 µM. For the same compound, the GI50 (COLO 205 colon) was 11.8 µM, the TGI (COLO 205 colon) was greater than 25 µM and the GI50 (BT-549 breast) was 18.8 µM. For the same compound, the TGI (BT-549 breast) was greater than 25 µM, the GI50 (MOLT-4 leukemia) was greater than 16.5 µM and the TGI (MOLT-4 leukemia) was greater than 25 µM. It also gave a GI50 (K-562 leukemia) greater than 16.3 µM, a TGI (K-562 leukemia) greater than 25 µM and a GI50 (LOX IMVI melanoma) of 6.18 µM. It also gave a TGI (LOX IMVI melanoma) greater than 17.7 µM, a GI50 (HT29 colon) of 6.88 µM and a TGI (HT29 colon) greater than 18.4 µM. For the same compound, the GI50 (SK-OV-3 ovarian) was greater than 22.6 µM, the TGI (SK-OV-3 ovarian) was greater than 25 µM and the GI50 (OVCAR-5 ovarian) was greater than 22.9 µM. The TGI (OVCAR-5 ovarian) was greater than 25 µM, the GI50 (HCT-15 colon) was 8.5 µM and the TGI (HCT-15 colon) was 24.4 µM. For the same compound, the GI50 (IGROV1 ovarian) was 11.4 µM, the TGI (IGROV1 ovarian) was greater than 25 µM and the GI50 (SNB-75 CNS) was 3.91 µM. For the same compound, the TGI (SNB-75 CNS) was 9.6 µM, the GI50 (OVCAR-3 ovarian) was 5.24 µM and the TGI (OVCAR-3 ovarian) was 11 µM. For the same compound, the GI50 (NCI/ADR-RES ovarian) was 8.37 µM, the TGI (NCI/ADR-RES ovarian) was greater than 21.7 µM and the GI50 (NCI-H460 lung) was 5.23 µM. For the same compound, the TGI (NCI-H460 lung) was 11.1 µM, the GI50 (M14 melanoma) was 12 µM and the TGI (M14 melanoma) was 24.5 µM. The GI50 (SR leukemia) was 2.15 µM, the TGI (SR leukemia) was greater than 25 µM and the GI50 (HS 578T breast) was 7.38 µM. For the same compound, the TGI (HS 578T breast) was greater than 20.3 µM, the GI50 (CCRF-CEM leukemia) was greater than 17.9 µM and the TGI (CCRF-CEM leukemia) was greater than 25 µM.
